Measured values from ChEMBL document CHEMBL5233220, “A review of currently identified small molecule modulators of microRNA function” (Eur J Med Chem, 2020).
pEC50, pIC50, pKd: −log10 of the molar value. “And” between values parts separate entries of the source, which are not always exact repeats. Equal values may be shown once. Values belong to the compound of their own block, whether it stands above or below them.

Legend:
[1] = Inhibition of pre-miR-21 (unknown origin) at 5 uM by FP assay relative to control
[2] = Inhibition of miR-96 (unknown origin); design: species or system Homo sapiens
[3] = Binding affinity to miR-96 (unknown origin) assessed as dissociation constant; design: species or system Homo sapiens
[4] = Binding affinity to miR-18a (unknown origin) assessed as dissociation constant
[5] = Inhibition of miR-18a (unknown origin) […] by qRT-PCR analysis
[6] = Inhibition of miR-27a (unknown origin) maturation at 5 uM relative to control
[7] = Binding affinity to miR-27a (unknown origin) assessed as dissociation constant by FP assay
[8] = Inhibition of pre-miR-372 (unknown origin)
[9] = Inhibition of human topoisomerase 2
[10] = Inhibition of miR-21 in human HeLa cells by luciferase assay; format: cell-based
HeLa [11] = experiment: Inhibition of pre-miR-21 in human HeLa cells by qRT-PCR assay relative to control; format: cell-based; details: dose or concentration not given here
HeLa [12] = experiment: Inhibition of miR-21 in human HeLa cells by qRT-PCR assay relative to control; format: cell-based; details: dose or concentration not given here
[13] = Binding affinity to pre-miR-21 (unknown origin) at A bulge assessed as dissociation constant by dicer assay
[14] = Binding affinity to pre-miR-21 (unknown origin) at U bulge assessed as dissociation constant by dicer assay
[15] = Inhibition of pre-miR-21 (unknown origin)
Protein argonaute-2 = Protein argonaute-2 (Homo sapiens, UniProt Q9UKV8); experiment: Binding affinity to AGO2 (unknown origin) assessed as dissociation constant by RIP assay
Chain of Protein argonaute-2 (Q9UKV8 whole entry): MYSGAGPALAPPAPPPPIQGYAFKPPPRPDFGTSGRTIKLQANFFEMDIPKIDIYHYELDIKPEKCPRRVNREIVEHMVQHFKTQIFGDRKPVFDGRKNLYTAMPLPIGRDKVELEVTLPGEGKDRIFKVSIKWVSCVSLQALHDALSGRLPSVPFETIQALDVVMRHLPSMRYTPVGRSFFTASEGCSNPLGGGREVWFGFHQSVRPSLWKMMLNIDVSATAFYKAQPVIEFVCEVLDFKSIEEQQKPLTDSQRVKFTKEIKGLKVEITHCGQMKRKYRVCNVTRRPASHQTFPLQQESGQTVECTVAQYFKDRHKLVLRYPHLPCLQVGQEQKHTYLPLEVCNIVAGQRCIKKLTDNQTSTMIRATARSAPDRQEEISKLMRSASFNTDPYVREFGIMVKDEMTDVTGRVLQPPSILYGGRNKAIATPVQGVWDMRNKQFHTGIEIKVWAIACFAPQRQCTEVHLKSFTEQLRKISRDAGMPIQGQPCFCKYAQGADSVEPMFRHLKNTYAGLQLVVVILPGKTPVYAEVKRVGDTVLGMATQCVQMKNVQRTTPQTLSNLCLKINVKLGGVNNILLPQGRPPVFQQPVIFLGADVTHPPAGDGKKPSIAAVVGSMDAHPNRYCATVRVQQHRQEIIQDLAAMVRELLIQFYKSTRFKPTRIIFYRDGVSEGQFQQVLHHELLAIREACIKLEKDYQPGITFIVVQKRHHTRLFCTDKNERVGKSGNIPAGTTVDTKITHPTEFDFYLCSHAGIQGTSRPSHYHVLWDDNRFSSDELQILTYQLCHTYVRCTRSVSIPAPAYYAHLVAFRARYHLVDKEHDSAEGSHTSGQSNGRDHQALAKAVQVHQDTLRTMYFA

[16] = Activation of miR-122 (unknown origin) by luciferase assay
[17] = Activation of miR-122 (unknown origin) assessed as relative light unit by luciferase assay; details: filed as activator
[18] = Binding affinity to miR-10b (unknown origin) assessed as dissociation constant
HeLa [19] = experiment: Inhibition of miR-10b maturation in human HeLa cells at 100 uM by luciferase assay relative to control; format: cell-based
HeLa [20] = experiment: Inhibition of pre-miR-10b maturation in human HeLa cells at 100 uM by luciferase assay relative to control; format: cell-based
[21] = Inhibition of pre-miR-372 (unknown origin) by FRET assay
[22] = Inhibition of pre-miR-373 (unknown origin) by FRET assay
[23] = Inhibition of pre-miR-373 (unknown origin) at 250 uM by FRET assay relative to control
[24] = Binding affinity to pre-miR-373 (unknown origin) assessed as dissociation constant
HeLa [25] = experiment: Inhibition of miR-96 maturation in human HeLa cells at 40 uM by luciferase assay relative to control; format: cell-based
[26] = Binding affinity to pre-miR-21 (unknown origin) assessed as dissociation constant by fluorescence-based assay
[27] = Binding affinity to pre-miR-21 (unknown origin) assessed as dissociation constant
MCF7 = experiment: Inhibition of miR-122 in human MCF7 cells relative to control; format: cell-based; details: dose or concentration not given here

Structure (SMILES): CN(c1ccccc1)C1c2ccccc2N=C(NCCCNCCCCNCCCN)C1(C)C (centres undefined)
pIC50 [8]: 5.97

Structure (SMILES): CCn1cc(C(=O)O)c(=O)c2cc(F)c(N3CCNCC3)nc21 [ENOXACIN]
pIC50 [9]: 4.52

Structure (SMILES): O=C1c2c(O)ccc(O)c2C(=O)c2c(NCCNCCO)ccc(NCCNCCO)c21 [MITOXANTRONE]
pKd [13]: 7.48 | pKd [14]: 7.34 | pIC50 [15]: 5.52

Structure (SMILES): CN(C)CCN1C(=O)c2cccc3cc(N)cc(c23)C1=O [AMONAFIDE]
pIC50 [16]: 5.52 | Activity [17]: 0.11 RLU

Structure (SMILES): CN1CCN(c2ccc3nc(-c4cc(C(C)(C)C)c(OCCCC(=O)NCCCN=[N+]=[N-])c(C(C)(C)C)c4)[nH]c3c2)CC1
inhibition (HeLa [25]): 90%

Structure (SMILES): O=C(c1ccccc1)c1c2c3c(cccc3c3ccccc13)C(=O)C=C2
inhibition (MCF7): 30%

The next lines start with results.

inhibition [1]: 90%
Structure (SMILES): NC[C@@H]1O[C@H](O[C@H]2[C@@H](O)[C@H](O[C@@H]3[C@@H](O)[C@H](N)C[C@H](N)[C@H]3O[C@H]3O[C@H](CN)[C@@H](O)[C@H](O)[C@H]3N)O[C@@H]2CSCCNC(=O)CCCCCn2cc(Oc3ccc4c(c3)C(=O)N(O)C(=O)C4)nn2)[C@H](N)[C@@H](O)[C@@H]1O

pIC50 [2]: 7.30 and 6.70 | pKd [3]: 7.07 | pKd [4]: 4.52 | pIC50 [5]: 5.00
Structure (SMILES): CN1CCN(c2ccc(-c3ccc4nc(-c5cc(C(C)(C)C)c(OCCCC(=O)NCCCN=[N+]=[N-])c(C(C)(C)C)c5)[nH]c4c3)cc2)CC1

inhibition [6]: 25% | pKd [7]: 6.14
Structure (SMILES): CNC(=O)c1cc(Oc2ccc(NC(=O)Nc3ccc(Cl)c(C(F)(F)F)c3)c(F)c2)ccn1 [REGORAFENIB]

pEC50 [10]: 5.70
Structure (SMILES): C#CCNC(=O)c1ccc(/N=N/c2ccccc2)cc1
inhibition (HeLa [11]): 87% | inhibition (HeLa [12]): 87%

pKd (Protein argonaute-2): 3.90
Structure (SMILES): CC(NS(=O)(=O)c1ccc2nc(O)c(O)nc2c1)C(=O)O (centres undefined)

pKd [18]: 6.38
Structure (SMILES): [N-]=[N+]=NC[C@H]1O[C@@H](O[C@H]2[C@H](O[C@H]3O[C@H](CNC(=N)N)[C@@H](O)[C@H](O)[C@H]3NC(=N)N)[C@@H](NC(=N)N)CC[C@@H]2O)[C@H](O)[C@@H]1O[C@H]1O[C@@H](CNC(=N)N)C[C@H](O)[C@H]1NC(=N)N
inhibition (HeLa [19]): 50% | inhibition (HeLa [20]): 30%

pIC50 [21]: 5.38 | pIC50 [22]: 6.27 | inhibition [23]: 20% | pKd [24]: 7.85
Structure (SMILES): NC[C@@H]1O[C@H](O[C@H]2[C@@H](O)[C@H](O[C@@H]3[C@@H](O)[C@H](N)C[C@H](N)[C@H]3O[C@H]3O[C@H](CN)[C@@H](O)[C@H](O)[C@H]3N)O[C@@H]2n2cc(CCc3nc4cc(NC(=O)Nc5ccccc5)ccc4o3)nn2)[C@H](N)[C@@H](O)[C@@H]1O

pKd [26]: 5.43 | pKd [27]: 5.43
Structure (SMILES): NC(=O)C1=Cc2ccccc2C/C1=N/CC(=S)Nc1ccccc1
